Test results published in US12365675B2, “Stable heavy isotopes in amide functional groups and uses thereof” (RISEN (SUZHOU) PHARMA TECH CO., LTD., priority 2020, dated 2025).

What was measured:
[1] = Pharmacokinetic studies in beagle dogs, single oral dose; format: in vivo; conditions: for CLz/F: single oral dose 2.5 mg/kg each, co-administered, plasma
Experimental: Male and female beagle dogs (n=4; 2 males and 2 females) were used in the study. A single oral dose of Alpelisib (2.5 mg/kg) and Compound 1 (^18O1-Alpelisib) (2.5 mg/kg) were co-administered (at a total dose of 5 mg/kg) in DMSO and 0.5% carboxymethyl cellulose sodium (CMC-Na) aqueous solution (5:95, v/v). Blood samples were collected for analysis of Alpelisib and ^18O1-Alpelisib at 0.25, 0.5, 1, 1.5, 2, 3, 4, 6, 8, 10, 12 and 24 h. In FIG. 4, lines labelled with -∘- and -Δ- represent the plasma concentrations of Alpelisib-^18O1 and Alpelisib, respectively, following oral administration of the same dose of Alpelisib-^18O1 and Alpelisib to the animals.

[2] = Pharmacokinetic studies in Sprague Dawley (SD) rats, oral gavage; format: in vivo; conditions: both doses tested (2.5 and 0.322 mg/kg), greatest effect at low dose
Experimental: (a) SD rats, six in a group (n=6), were grouped randomly. Compound 1 (Alpelisib-^18O1) and Alpelisib were mixed and adjusted to 1:1 molar ratio in dosing solution (1.25 mg/mL); and the dosing solution was administered to the animals, via oral gavage, at a dose level of 2.5 mg/kg. Blood samples were collected at pre-set time points following drug administration, at 0.167, 0.5, 1, 2, 3, 4, 6, 8, and 24 hours (h). The blood samples were converted to plasma samples using standard techniques, and the latter samples were analyzed to determine the concentrations of Compound 1 and Alpelisib. In FIG. 1a, lines labelled with -∘- and --Δ-- represent the plasma concentrations of Alpelisib-^18O1 and Alpelisib, respectively, following oral administration of the same molar dose of Alpelisib-^18O1 and Alpelisib to the animals.
(b) Similarly, Compound 1 (Alpelisib-^18O1) and Alpelisib were administered to the animals (SD rats, n=4), via oral gavage, at a low dose (dose level of 0.322 mg/kg). Blood samples were collected at pre-set time points following drug administration, at 0.167, 0.5, 1, 2, 4, 6, 8, 10 and 24 hours (h). The blood samples were converted to plasma samples using standard techniques, and the latter samples were analyzed to determine the concentrations of Compound 1 and Alpelisib. […]

[3] = M4 and M4-18O1 production in liver S9 culture media; format: in vitro ADME, monkey, human, mini pig, Wistar rat
Experimental: Stock solution (50 μL) containing equal molar concentration of Alpelisib and Alpelisib-^18O1 was diluted with pre-warmed (37° C., water bath) 0.1 M Tris-Acetate buffer; and the concentration of each compound in this working solution was 4.5 μM. In each incubation well were added the above working solution (50 μL) and a liver S9 solution (50 μL), mixed well. The sample was pre-incubated for 5 min, following by addition, to each well, of β-NADPH dosing solution (100 μL). The sample plate was incubated at 37° C., and analyzed at time points of 0, 15, 30, 60, and 240 min., in triplicates. Sample analysis: at a pre-set time-point, a stop solution (800 μL, acetonitrile) was added to each well; the sample was well-mixed (Vortex), and centrifuged at 12000 rpm for 5 minutes; the supernatant was transferred to analytical sample vial, and then analyzed with LC-MS/MS, for M4 and M4-^18O1. […] Liver S9 used in the experiment: (a) monkey liver S9, (b) pooled human S9, (c) mini pig liver S9, and (d) male Wistar rat Liver S9.

[4] = Pharmacokinetic studies in ICR mice, oral gavage; format: in vivo; conditions: same dose
Experimental: ICR mice, 48, in 6 groups (n=8), were grouped randomly. Compound 1 (Alpelisib-^18O1) and Alpelisib were mixed and adjusted to 1:1 molar ratio in dosing solution (1.25 mg/mL); and the dosing solution was administered to the animals, via oral gavage, at a dose level of 2.5 mg/kg. Blood samples were collected (a group of 8 animals for each time point) at time points, after dosing, at 0.5, 1, 2, 4, 8, and 12 h. The blood samples were converted to plasma samples using standard techniques, and the latter samples were analyzed to determine the concentrations of Compound 1 and Alpelisib. In FIG. 2, lines labelled with -∘- and --Δ-- represent the plasma concentrations of Alpelisib-^18O1 and Alpelisib, respectively, following oral administration of the same dose of Alpelisib-^18O1 and Alpelisib to the animals.

| CLz/F [1] | plasma concentration compared with Alpelisib [2] | concentration of the metabolite M4-18O1 compared to that of M4 from alpelisib ([3]; liver S9 (monkey, pooled human, mini pig, male Wistar rat), 37° C., β-NADPH, 0-240 min, equimolar co-incubation) | metabolism compared to that of Alpelisib ([3]; liver S9 incubation, taken together with PK results) | plasma concentration compared with Alpelisib ([1]; oral, same dose) | plasma concentration compared with Alpelisib [4] | SMILES |
| --- | --- | --- | --- | --- | --- | --- |
| 6.83 mL/min/kg |  |  |  |  |  | Cc1nc(NC(=O)N2CCC[C@H]2C(N)=O)sc1-c1ccnc(C(C)(C)C(F)(F)F)c1 [Alpelisib, N-(4-methyl-5-(2-(2,2,2-trifluoro-1,1-dimethylethyl)-4-pyridinyl)-2-thiazolyl)aminocarbonyl-L-prolinamide, reference compound] |
| 6.33 mL/min/kg | higher than for Alpelisib | decreased | reduced | higher than for Alpelisib | higher than for Alpelisib | Cc1nc(NC(=O)N2CCC[C@H]2C(N)=[18O])sc1-c1ccnc(C(C)(C)C(F)(F)F)c1 [Compound 1, N-(4-methyl-5-(2-(2,2,2-trifluoro-1,1-dimethylethyl)-4 pyridinyl)-2-thiazolyl)aminocarbonyl-L-prolin-^18O-amide] |
